This is an account of results in patent US20240123078A1, “COMPOUNDS AND METHODS FOR MODULATING IMMUNE-RELATED PROTEINS” (Vividion Therapeutics, Inc., priority 2019, published 2024).

Assay [1] concerns the target T1, UBASH3A Ubiquitin-associated and SH3 domain-containing protein A C435 (P57075) (Homo sapiens, UniProt P57075).
T1 construct: endogenous in cells; host or cells: primary human T cells
T1 sequence (P57075 1-661): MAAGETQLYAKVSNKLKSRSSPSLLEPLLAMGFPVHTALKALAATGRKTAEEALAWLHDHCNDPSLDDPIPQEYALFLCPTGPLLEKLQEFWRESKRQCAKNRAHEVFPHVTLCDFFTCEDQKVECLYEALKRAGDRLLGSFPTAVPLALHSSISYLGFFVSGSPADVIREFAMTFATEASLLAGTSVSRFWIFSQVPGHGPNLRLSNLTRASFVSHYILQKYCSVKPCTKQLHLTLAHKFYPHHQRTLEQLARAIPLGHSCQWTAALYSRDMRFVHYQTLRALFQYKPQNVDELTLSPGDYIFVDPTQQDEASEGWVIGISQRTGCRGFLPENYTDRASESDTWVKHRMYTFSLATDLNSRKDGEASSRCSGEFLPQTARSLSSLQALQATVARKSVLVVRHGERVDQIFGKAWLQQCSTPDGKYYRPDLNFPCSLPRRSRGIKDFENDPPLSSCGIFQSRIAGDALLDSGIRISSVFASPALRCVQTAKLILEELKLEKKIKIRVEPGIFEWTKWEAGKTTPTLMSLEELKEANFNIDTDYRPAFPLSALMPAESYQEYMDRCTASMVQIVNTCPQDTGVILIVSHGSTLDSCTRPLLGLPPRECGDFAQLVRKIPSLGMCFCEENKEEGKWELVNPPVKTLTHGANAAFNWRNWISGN
The experiment in a line: Cysteine reactivity ABPP. The assay is classed as binding. As to conditions: 100.

For assay [2], the target named is T2, KAT8 Histone acetyltransferase KAT8 C416 (Q9H7Z6) (Homo sapiens, UniProt Q9H7Z6).
T2 construct: endogenous in cells; host or cells: primary human T cells
T2 sequence (Q9H7Z6 1-458): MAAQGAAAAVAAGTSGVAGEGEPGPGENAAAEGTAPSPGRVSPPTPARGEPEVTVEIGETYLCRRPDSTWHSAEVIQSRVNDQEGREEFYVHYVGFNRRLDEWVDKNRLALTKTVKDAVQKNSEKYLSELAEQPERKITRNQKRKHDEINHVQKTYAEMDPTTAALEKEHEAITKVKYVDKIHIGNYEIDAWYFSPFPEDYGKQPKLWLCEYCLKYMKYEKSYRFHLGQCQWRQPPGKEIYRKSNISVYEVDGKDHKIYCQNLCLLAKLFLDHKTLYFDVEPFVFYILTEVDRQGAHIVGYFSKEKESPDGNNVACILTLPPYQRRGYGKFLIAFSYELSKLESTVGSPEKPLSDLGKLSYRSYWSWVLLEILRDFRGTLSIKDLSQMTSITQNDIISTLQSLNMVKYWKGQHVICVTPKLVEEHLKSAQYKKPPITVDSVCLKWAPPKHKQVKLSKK
Briefly: Cysteine reactivity ABPP. The assay is classed as binding. As to conditions: 100.

As for `O=C(CCl)N1CCN(S(=O)(=O)c2ccc(-c3ccncc3)cc2)CC1` [Compound B9], the figures for the “Cysteine reactivity proteomic data” value in assay [1] and in assay [2] were 78.65 and 67.98, respectively.
